Where a name gives a salt, the structure may show the parent alone. Read-outs that look alike come from different tables or passages of the source.
Assays:
[1] = test system: phosphorylated ERK downstream of KRAS G12C in MIA PaCa2 cells; test: Cell p-ERK detection experiment (HTRF) in MIA PaCa2; type: cell-based, human; settings: read-out: p-ERK IC50
In short: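 KRAS G12C-mutant MIA PaCa2 cells (2.5E4 per well, overnight) exposed 2 h to a 3.16-fold compound dilution series at 0.1% DMSO. Lysates probed 4 h with HTRF antibodies to ERK phospho-T202/Y204; inhibition versus DMSO control and blank, IC50 by four-parameter fit.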

[2] = target: T1, KRAS G12C (Homo sapiens, UniProt P01116, G12C); test: KRAS G12C NEA-HTRF experiment (SOS1-catalyzed displacement of GDP by GTP); type: biochemical
T1 construct: purchased Reactionbiology
In short: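 His-tagged KRAS G12C preloaded with DY647-GDP was preincubated 15 min at 20 °C with compound, then exchanged with SOS1 (0.2 μM working solution) and GTP (200 μM working solution) for 2 h at 20 °C in the dark. HTRF 665/615 nm ratio with anti-His-Tb was normalised to T0 and no-compound controls; IC50 by four-parameter fit.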

[3] = Homo sapiens, MIA PaCa-2, 2 h, MIA PaCa2 cells, 2 hours with compound, Advance ERK phospho-T202/Y204 HTRF kit
[4] = MIA PaCa2 cells, 2 hours with compound, Advance ERK phospho-T202/Y204 HTRF kit

T1 sequence (P01116 1-188 isoform P01116-2 G12C): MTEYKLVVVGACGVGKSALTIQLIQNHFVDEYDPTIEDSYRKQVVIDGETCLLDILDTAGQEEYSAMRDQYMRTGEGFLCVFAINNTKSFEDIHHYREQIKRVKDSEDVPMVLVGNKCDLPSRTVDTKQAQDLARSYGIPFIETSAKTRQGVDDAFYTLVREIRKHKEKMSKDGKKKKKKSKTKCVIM

| Structure (SMILES) | IC50 [1, 3] [nM] | IC50 [2] [nM] | IC50 [1, 4] [nM] | IC50 ([1]; Homo sapiens, MIA PaCa-2, 2 h) [nM] |
| --- | --- | --- | --- | --- |
| C=CC(=O)N1CCN2C(=O)c3c(N4CC(O)CC4(C)C)nc(-c4c(O)cccc4F)c(F)c3OC[C@H]2C1 (stereo partly drawn) [Z256, (6aR)-8-acryloyl-4-fluoro-3-(2-fluoro-6-hydroxyphenyl)-1-(4-hydroxy-2,2-dimethylpyrrolidin-1-yl)-6,6a,7,8,9,10-hexahydro-12H-pyrazino[2,1-c]pyrido[3,4-f][1,4]oxazepin-12-one] | 43 | 64 |  |  |
| C=CC(=O)N1CCN2C(=O)c3c(C4NCCN5C(=O)CCC45C)nc(-c4c(O)cccc4F)c(Cl)c3OC[C@H]2C1 (stereo partly drawn) [Z337, (6aR)-8-acryloyl-4-chloro-3-(2-fluoro-6-hydroxyphenyl)-1-(8a-methylhexahydropyrrolo[1,2-a]pyrazin-6 (2H)-one-1-yl)-6,6a,7,8,9,10-hexahydro-12H-pyrazino[2,1-c]pyrido[3,4-f][1,4]oxazepin-12-one] |  | 58 | 154 |  |
| C=CC(=O)N1CCN2C(=O)c3c(N4CCN(C)C(C)(C)C4)nc(-c4ccccc4F)c(Cl)c3OC[C@H]2C1 [Z463, (R)-8-acryloyl-4-chloro-3-(2-fluorophenyl)-1-(3,3,4-trimethylpiperazin-1-yl)-6,6a,7,8,9,10-hexahydro-12H-pyrazino[2,1-c]pyrido[3,4-f][1,4]oxazepin-12-one, formate] |  | 760 |  | 271 |
| C=CC(=O)N1CCN2C(=O)c3c(N4CC(N(C)CC(F)F)CC4(C)C)nc(-c4ccccc4F)c(Cl)c3OC[C@H]2C1 (stereo partly drawn) [Z659] |  | 19.4 | 26 |  |

Now from value to compound, other results behind:

| IC50 [1, 3] [nM] | IC50 [2] [nM] | IC50 [1, 4] [nM] | Structure (SMILES) | IC50 ([1]; Homo sapiens, MIA PaCa-2, 2 h) [nM] |
| --- | --- | --- | --- | --- |
| 104 | 93 |  | C=CC(=O)N1CCN2C(=O)c3c(N4CCN(CCO)C[C@@H]4C)nc(-c4c(O)cccc4F)c(Cl)c3OC[C@H]2C1 [Z257, (6aR)-8-acryloyl-4-chloro-3-(2-fluoro-6-hydroxyphenyl)-1-((S)-4-(2-hydroxyethyl)-2-methylpiperazin-1-yl)-6,6a,7 ,8,9,10-hexahydro-12H-pyrazino[2,1-c]pyrido[3,4-f][1,4]oxazepin-12-one] |  |
| 195 | 113 |  | C=CC(=O)N1CCN2C(=O)c3c(N4C[C@H](O)C[C@@H]4C)nc(-c4c(O)cccc4F)c(Cl)c3OC[C@H]2C1 [Z259, (6aR)-8-acryloyl-4-chloro-3-(2-fluoro-6-hydroxyphenyl)-1-((2S,4R)-4-hydroxy-2-methylpyrrolidin-1-yl)-6,6a,7,8,9,10-hexahydro-12H-pyrazino[2,1-c]pyrido[3,4-f][1,4]oxazepin-12-one] |  |
| 91 | 33 |  | C=CC(=O)N1CCN2C(=O)c3c(N4C[C@@H](O)C[C@@H]4C)nc(-c4c(O)cccc4F)c(Cl)c3OC[C@H]2C1 [Z260, (6aR)-8-acryloyl-4-chloro-3-(2-fluoro-6-hydroxyphenyl)-1-((2S,4S)-4-hydroxy-2-methylpyrrolidin-1-yl)-6,6a,7,8,9,10-hexahydro-12H-pyrazino[2,1-c]pyrido[3,4-f][1,4]oxazepin-12-one] |  |
| 59 | 150 |  | C=CC(=O)N1CCN2C(=O)c3c(N4CCN(C)C(C)(C)C4)nc(-c4c(O)cccc4F)c(Cl)c3OC[C@H]2C1 [Z261, (6aR)-8-acryloyl-4-chloro-3-(2-fluoro-6-hydroxyphenyl)-1-(3,3,4-trimethylpiperazin-1-yl)-6,6a,7,8,9,10-hexahydro-12H-pyrazino[2,1-c]pyrido[3,4-f][1,4]oxazepin-12-one] |  |
|  | 111 | 21 | C=CC(=O)N1CCN2C(=O)c3c(N4CCN(C)C(C)C4C)nc(-c4c(O)cccc4F)c(Cl)c3OC[C@H]2C1 (stereo partly drawn) [Z308a, (6aR)-8-acryloyl-4-chloro-3-(2-fluoro-6-hydroxyphenyl)-1-(2,3,4-trimethylpiperazin-1-yl)-6,6a,7,8,9,10-hexahydro-12H-pyrazino[2,1-c]pyrido[3,4-f][1,4]oxazepin-12-one] |  |

Source: US20230203060A1 (GENFLEET THERAPEUTICS (SHANGHAI) INC., priority 2020, published 2023)
